{
  "source": "patent US20240050385A1",
  "about": "“METHODS OF TREATING LEPTOMENINGEAL METASTASIS” (MEMORIAL SLOAN-KETTERING CANCER CENTER, priority 2020, published 2024)",
  "key": {"[1]": {"test_system": "PC9-LeptoM cells", "test": "In vivo leptomeningeal metastasis assay, PC9-LeptoM model, intracisternal chelator treatment", "parameters": "species or system mouse"}, "[2]": {"test": "IT-DFO dose escalation toxicity in healthy C57BL6/J mice", "type": "in vivo, mouse", "description": "An IT-DFO dose escalation experiment was completed to determine the lethal dose to 10% of rodents (LD10) and any dose-dependent toxicities to the systemic circulation and organ function in a mouse model. In this study, healthy C57BL6/J mice were injected intracistemally with either PBS (control) or with a fixed dose of DFO (0.05 μM, 1 μM, 10 μM, 50 μM and 100 μM) in replicate at a schedule of twice weekly for a total of 6 weeks (42 days). Mice were monitored for weekly weights and survival trends. Remaining mice were sacrificed on day 46 and circulating blood collected via cardiac puncture. Blood was sent for complete blood count (CBC) with automated differential and complete metabolic panels (CMP)."}},
  "note": "Structures can show the parent of a compound that is named as a salt.",
  "data": [
    {"compound": "CC(=O)N(O)CCCCCNC(=O)CCC(=O)N(O)CCCCCNC(=O)CCC(=O)N(O)CCCCCN", "note": "[DFO, Deferoxamine mesylate]", "values": [
      {"measurement": "[Fe]", "setting": "[1]; total iron in CSF, early (day 0)", "result": "5.63 ± 0.70", "unit": "µM"},
      {"measurement": "Median Survival", "setting": "[1]; treatment begun early (day 0), every 3 days", "result": "52 ± 7", "unit": "days"},
      {"measurement": "lethality with cumulative twice weekly dosing (LD for % rodents)", "setting": "[2]; 10 μM group, one mouse died at day 24, total N=12", "result": 8.3, "unit": "%"},
      {"measurement": "lethality with cumulative twice weekly dosing (LD for % rodents)", "setting": "[2]; 50 μM group, one mouse died at day 46, total N=8", "result": 12.5, "unit": "%"},
      {"measurement": "lethality following a single dose", "setting": "[2]; any tested concentration (0.05, 1, 10, 50, 100 μM)", "result": "no mice died"},
      {"measurement": "tolerability of intracisternal administration", "setting": "[2]; mouse, in vivo", "result": "well tolerated"}
    ]}
  ]
}
